Assay results as given in patent US10759721B2, “Deuterated CFTR potentiators” (Vertex Pharmaceuticals (Europe) Limited, priority 2015, dated 2020).
Where two headings read alike, the source gives them in different places.

Experiments:
CYP3A4 = target: T1, CYP3A4 (Homo sapiens, UniProt P08684); test: Metabolic stability in human CYP3A4 Supersomes; assay type: in vitro ADME; settings: recombinant human CYP3A4 Supersomes, pH 7.4, human CYP3A4 Supersomes, read-out: calculated average half-life
T1 construct: purchased BD Biosciences
Protocol: (§1) Stock solutions (7.5 mM) of Compound 100 and Compound A were prepared in DMSO. The 7.5 mM stock solutions were diluted to 12.5 μM in acetonitrile (ACN). The human CYP3A4 Supersomes™ (2000 pmol/mL, purchased from BD Biosciences™) were diluted to 62.5 pmol/mL in 0.1 M potassium phosphate buffer, pH 7.4, containing 3 mM MgCl2. The diluted supersomes were added to wells of a 96-well polypropylene plate in triplicate. A 10 μL aliquot of the 12.5 μM test compound was added to the supersomes and the mixture was pre-warmed for 10 minutes. Reactions were initiated by addition of pre-warmed NADPH solution. The final reaction volume was 0.5 mL and contained 50 pmol/mL CYP3A4 Supersomes™, 0.25 μM test compound, and 2 mM NADPH in 0.1 M potassium phosphate buffer, pH 7.4, and 3 mM MgCl2. The reaction mixtures were incubated at 37° C., and 50 μL aliquots were removed at 0, 3, 7, 10, 20 and 30 minutes and added to 96-well plates which contained 125 μL of ice-cold ACN with internal standard to stop the reactions. The plates were stored at 4° C. for 20 minutes after which 75 μL of water was added to the wells of the plate before centrifugation to pellet precipitated proteins. Supernatants were transferred to another 96-well plate and analyzed for amounts of parent remaining by LC-MS/MS using an AB Sciex QTrap 5500 mass spectrometer.
(§2) The in vitro half-lives (t1/2 values) for test compounds were calculated from the slopes of the linear regression of LN (% parent remaining) vs incubation time relationship: in vitro t1/2=0.693/k, where k=−[slope of linear regression of LN (% parent remaining) vs incubation time].
as §1, with “Compound 120” for “Compound 100”, “Compound B” for “Compound A”

human CYP3A4 Supersomes = target: T2, human CYP3A4 Supersomes (Homo sapiens, UniProt P08684); test: Metabolic stability in human CYP3A4 Supersomes; assay type: in vitro ADME; settings: for average increase in t1/2 / apparent intrinsic clearance ratio: human CYP3A4 Supersomes; for Clint, app rCYP: human CYP3A4 Supersomes 50 pmol/mL, 0.25 μM test compound, CL int = (0.693/in vitro t1/2)(mL incubation volume/pmol P450)
T2 construct: purchased BD Biosciences
Protocol: as §1, §2
as §1, with “Compound 120” for “Compound 100”, “Compound B” for “Compound A”

[1] = system: patients with cystic fibrosis carrying at least one copy of the G551D-CFTR mutation; settings: phase III trials; cited from earlier work

T2 sequence (P08684 whole entry): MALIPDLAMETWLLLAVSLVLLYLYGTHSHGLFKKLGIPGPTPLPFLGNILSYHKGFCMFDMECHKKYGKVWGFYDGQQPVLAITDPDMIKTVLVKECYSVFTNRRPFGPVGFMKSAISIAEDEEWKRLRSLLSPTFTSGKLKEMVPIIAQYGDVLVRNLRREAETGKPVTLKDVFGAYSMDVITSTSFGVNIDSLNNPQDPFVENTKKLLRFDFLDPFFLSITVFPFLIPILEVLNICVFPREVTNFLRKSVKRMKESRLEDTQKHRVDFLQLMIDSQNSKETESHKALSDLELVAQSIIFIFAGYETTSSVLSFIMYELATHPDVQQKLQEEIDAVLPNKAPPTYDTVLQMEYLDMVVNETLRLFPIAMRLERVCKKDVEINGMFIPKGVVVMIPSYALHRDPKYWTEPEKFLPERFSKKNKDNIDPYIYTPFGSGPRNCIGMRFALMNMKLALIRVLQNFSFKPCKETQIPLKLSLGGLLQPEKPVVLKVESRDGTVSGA
T1 sequence (P08684 whole entry): as above

half-life at 0.25 μM (CYP3A4; text of Example 3)	Clint, app rCYP (human CYP3A4 Supersomes; Table 2)	half-life at 0.25 μM (CYP3A4; Example 4)	Clint, app rCYP (human CYP3A4 Supersomes; Table 3)	SMILES	other results
26.5 min	0.26 ± 0.00 µL/min/pmol			[2H]C([2H])([2H])C(c1ccc(NC(=O)c2c[nH]c3ccccc3c2=O)cc1O)(C([2H])([2H])[2H])C([2H])([2H])[2H] [Compound 100, N-(3-Hydroxy-4-(2-(methyl-d3)propan-2-yl-1,1,1,3,3,3-d6)phenyl)-4-oxo-1,4-dihydroquinoline-3-carboxamide]	average increase in t1/2 (human CYP3A4 Supersomes; Compound 100 relative to Compound A): 75%; apparent intrinsic clearance ratio (human CYP3A4 Supersomes; ratio 100/A): 0.57; stability in Human CYP3A4 Supersomes relative to Compound A (human CYP3A4 Supersomes; relative to Compound A): more stable
		20.6 min	0.34 ± 0.00 µL/min/pmol	[2H]C([2H])([2H])C(c1cc(C(F)(F)F)c(NC(=O)c2c[nH]c3ccccc3c2=O)cc1O)(C([2H])([2H])[2H])C([2H])([2H])[2H] [Compound 120, N-(5-hydroxy-4-(2-(methyl-d3)propan-2-yl-1,1,1,3,3,3-d6)-2-(trifluoromethyl)phenyl)-4-oxo-1,4-dihydroquinoline-3-carboxamide]	average increase in t1/2 (human CYP3A4 Supersomes; Compound 120 relative to Compound B): 42%; apparent intrinsic clearance ratio (human CYP3A4 Supersomes; ratio 120/B): 0.71; stability in Human CYP3A4 Supersomes relative to Compound B (human CYP3A4 Supersomes; relative to Compound B): more stable
15.1 min	0.46 ± 0.02 µL/min/pmol			CC(C)(C)c1ccc(NC(=O)c2c[nH]c3ccccc3c2=O)cc1O [Compound A, N-(4-(tert-butyl)-3-hydroxyphenyl)-4-oxo-1,4-dihydroquinoline-3-carboxamide, reference compound]	
		14.5 min	0.48 ± 0.06 µL/min/pmol	CC(C)(C)c1cc(C(F)(F)F)c(NC(=O)c2c[nH]c3ccccc3c2=O)cc1O [Compound B, N-(4-(tert-butyl)-5-hydroxy-2-(trifluoromethyl)phenyl)-4-oxo-1,4-dihydroquinoline-3-carboxamide, reference compound]	
				CC(C)(C)c1cc(C(C)(C)C)c(NC(=O)c2c[nH]c3ccccc3c2=O)cc1O [VX-770, N-(2,4-di-tert-butyl-5-hydroxyphenyl)-4-oxo-1,4-dihydroquinoline-3-carboxamide]	improvement in lung function and other key indicators of the disease (sweat chloride levels, likelihood of pulmonary exacerbations, body weight) [1]: marked levels of improvement
